The values that follow come from patent EP3636645A1, “PROCESS FOR THE PREPARATION OF SULFUR-SUBSTITUTED PYRIDINE DERIVATIVES” (Bayer Aktiengesellschaft, priority 2018, dated 2020).

The structures appear in SMILES notation.

A short description of this data set: physchem. Type of data set: physicochemical. Here is the method: Die Bestimmung der logP-Werte erfolgte gemäß EEC Directive 79/831 Annex V.A8 durch HPLC (High Performance Liquid Chromatography) an einer Phasenumkehrsäule (C18) mit Hilfe folgender Methoden: Der logP[a] Wert wird durch LC-UV Messung im sauren Bereich bestimmt, mit 0,9 mL/L Ameisensäure in Wasser und 1,0 mL/L Ameisensäure in Acetonitril als Eluenten (linearer Gradient von 10% Acetonitrile bis 95% Acetonitril).
Der logP[n] Wert wird durch LC-UV Messung im neutralen Bereich bestimmt, mit 79 mg/L Ammoniumcarbonat in Wasser und Acetonitril als Eluenten (linearer Gradient von 10% Acetonitril bis 95% Acetonitril).
Die Kalibrierung wurde mit einer homologen Reihe geradkettiger Alkan-2-one (mit 3 bis 16 Kohlenstoffatomen) mit bekannten logP Werten durchgeführt. Die Werte zwischen aufeinanderfolgender Alkanone werden durch lineare Regression bestimmt.

What is called chromatographic logP is lipophilicity estimated from chromatographic retention. Lower therefore signals a more hydrophilic compound. As for `Cn1c(-c2ncccc2SC(F)(F)F)nc2cc(C(F)(F)F)ncc21` [Beispiel 1, 3-Methyl-6-(trifluormethyl)-2-{3-[(trifluormethyl)sulfanyl]pyridin-2-yl}-3H-imidazo [4,5-c] pyridin], the chromatographic logP (hplc c18, acidic formic acid) came out at 3 and the chromatographic logP (hplc c18, ammonium carbonate) worked out at 2.97.
